Patent publication US9145351B2, “Azole derivatives, methods for producing the same, intermediate thereof, agro-horticultural agents” (KUREHA CORPORATION, priority 2009, dated 2015)

What was measured:
Fusarium graminearum = assay: whole plant or invertebrate; format: in vivo; details: in Triticum aestivum, 168 h, read-out: Protective value
Phaeosphaeria nodorum = assay: Plate medium fungicidal assay, wheat Septoria nodorum blotch P.n (Experimental Example 5); format: cell-based; details: Parastagonospora nodorum, plate medium, read-out: growth inhibition grade P.n; for inhibition at 5 µg/mL: 5 mg/L; for inhibition at 50 µg/mL: 50 mg/L
Summary of the method: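 Compound in DMSO mixed into PDA plate medium at 50 mg/L and 5 mg/L; 4 mm mycelial plug of pre-cultured fungus inoculated onto plate. Colony diameter compared with untreated plate, % mycelial growth inhibition = 100(dc−dt)/dc, scored in 5 grades.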

Ustilago nuda = assay: Plate medium fungicidal assay, barley loose smut U.n (Experimental Example 5); format: cell-based; details: Ustilago nuda, plate medium, read-out: growth inhibition grade U.n; for inhibition at 5 µg/mL: 5 mg/L; for inhibition at 50 µg/mL: 50 mg/L
Summary of the method: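 Compounds in DMSO were mixed into molten PDA to give plates at 50 mg/L and 5 mg/L, then inoculated with a 4 mm mycelial plug. Colony diameter was compared with untreated plates as % inhibition = 100(dc−dt)/dc, scored on a 5-grade scale.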

Giberella fujikuroi = assay: Plate medium fungicidal assay, rice bakanae disease G.f (Experimental Example 5); format: cell-based; details: plate medium, read-out: growth inhibition grade G.f; for inhibition at 5 µg/mL: 5 mg/L; for inhibition at 50 µg/mL: 50 mg/L
Summary of the method: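 Gibberella fujikuroi mycelial plugs (4 mm) placed on PDA plates containing compound at 50 mg/L and 5 mg/L, added from DMSO solution. Colony diameter compared with untreated plates as % inhibition = 100(dc−dt)/dc, then scored in 5 grades.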

Fusarium oxysporum = assay: Plate medium fungicidal assay, cucumber fusarium wilt F.c (Experimental Example 5); format: cell-based; details: Fusarium oxysporum, plate medium, read-out: growth inhibition grade F.c; for inhibition at 5 µg/mL: 5 mg/L; for inhibition at 50 µg/mL: 50 mg/L
Summary of the method: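 Compound in DMSO mixed into PDA agar to give plates at 50 mg/L and 5 mg/L, then inoculated with 4 mm mycelial plug. Colony diameter compared with untreated plate as % mycelial growth inhibition, R=100(dc−dt)/dc, then scored on a 5-grade scale.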

Trichoderma sp. = assay: Plate medium assay, industrial material deteriorating microorganism, Trichoderma (Experimental Example 5); format: cell-based; details: treatment at 50 mg/l, PDA plate medium, read-out: growth inhibition grade
Protocol: (§1) In this Experimental Example, the fungicidal effects of the inventive compounds on various phytopathogenic fungi for plants and hazardous microorganism for industrial materials were examined by the methods described below. Each inventive compound was dissolved in 2 ml of dimethyl sulfoxide. 0.6 ml of this solution was added to 60 nil of a PDA medium (potato dextrose agar medium) at about 60 degrees C., which was mixed thoroughly in a 100-ml conical flask, and poured into a dish, where it was solidified, thereby obtaining a plate medium containing the inventive compound at 50 mg/L and 5 mg/L. On the other hand, a subject microorganism previously cultured on a plate medium was cut out using a cork borer whose diameter was 4 mm, and inoculated to the test compound-containing plate medium described above. […] The growth degree of the microorganism on the test compound-containing plate medium thus observed was compared with the growth degree of the microorganism in the untreated group, and % mycelial growth inhibition was calculated by the following equation. R=100(dc-dt)/dc wherein R=% mycelial extension inhibition, dc=flora diameter in untreated plate, dt=flora diameter in treated plate. The results obtained as described above were evaluated as one of the 5 grades according to the following criteria.

Cladosporium sp. = assay: Plate medium assay, industrial material deteriorating microorganism, Cladosporium (Experimental Example 5); format: cell-based; details: treatment at 50 mg/l, PDA plate medium, read-out: growth inhibition grade
Protocol: as §1

Mucor sp. = assay: Plate medium assay, industrial material deteriorating microorganism, Mucor (Experimental Example 5); format: cell-based; details: treatment at 50 mg/l, PDA plate medium, read-out: growth inhibition grade
Protocol: as §1

| SMILES | pest or weed control at 500 µg/mL (Fusarium graminearum) | inhibition at 5 µg/mL (Phaeosphaeria nodorum) | inhibition at 50 µg/mL (Phaeosphaeria nodorum) | inhibition at 5 µg/mL (Ustilago nuda) | inhibition at 50 µg/mL (Ustilago nuda) | inhibition at 5 µg/mL (Giberella fujikuroi) | inhibition at 50 µg/mL (Giberella fujikuroi) | inhibition at 5 µg/mL (Fusarium oxysporum) | inhibition at 50 µg/mL (Fusarium oxysporum) | inhibition at 50 µg/mL (Trichoderma sp.) | inhibition at 50 µg/mL (Cladosporium sp.) | inhibition at 50 µg/mL (Mucor sp.) | pest or weed control at 100 µg/mL (Fusarium graminearum) |
| --- | --- | --- | --- | --- | --- | --- | --- | --- | --- | --- | --- | --- | --- |
| C[C@]1(CCl)CC[C@@H](Cc2ccc(Cl)cc2)[C@]1(O)Cn1ccnc1 (racemic) [Compound I-244, (1RS,2SR,5SR)-5-(4-chlorobenzyl)-2-chloromethyl-2-methyl-1-imidazol-1-ylmethylcyclopentanol] | ≥ 90% | > 80% | > 80% | > 80% | > 80% | > 80% | > 80% | > 80% | > 80% | 60 to 80% | 60 to 80% | 60 to 80% |  |
| C[C@]1(CCl)CC[C@H](Cc2ccc(Cl)cc2)[C@]1(O)Cn1cncn1 (racemic) [Compound I-301, (1RS,2SR,5RS)-5-(4-chlorobenzyl)-2-chloromethyl-2-methyl-1-[1,2,4]triazol-1-ylmethylcyclopentanol] | ≥ 90% | > 80% | > 80% | > 80% | > 80% | > 80% | > 80% | > 80% | > 80% | 60 to 80% | 60 to 80% | 60 to 80% |  |
| O[C@]1(Cn2cncn2)[C@@H](Cc2ccc(Cl)cc2)CC[C@@H]1C(F)(F)F (racemic) [Compound I-365, (1RS,2SR,5RS)-5-(4-chlorobenzyl)-2-trifluoromethyl-1-(1H-1,2,4-triazol-1-ylmethyl)cyclopentanol] | ≥ 90% | 40 to 60% | > 80% | 20 to 40% | > 80% | < 20% | > 80% | 20 to 40% | > 80% | 60 to 80% | 60 to 80% | 60 to 80% |  |
| C[C@@]1(CCl)CC[C@H](Cc2ccc(Cl)cc2)[C@]1(O)Cn1cncn1 (racemic) [Compound I-401, (1RS,2RS,5RS)-5-(4-chlorobenzyl)-2-chloromethyl-2-methyl-1-[1,2,4]triazol-1-ylmethylcyclopentanol] | ≥ 90% | > 80% | > 80% | 60 to 80% | > 80% | > 80% | > 80% | > 80% | > 80% | 60 to 80% | 60 to 80% | 60 to 80% |  |
| C[C@]1(CBr)CC[C@@H](Cc2ccc(F)cc2)[C@]1(O)Cn1cncn1 (racemic) [Compound I-601, (1RS,2SR,5SR)-2-bromomethyl-5-(4-fluorobenzyl)-2-methyl-1-(1H-1,2,4-triazol-1-ylmethyl)cyclopentanol] | ≥ 90% | 60 to 80% | > 80% | 40 to 60% | > 80% | > 80% | > 80% | > 80% | > 80% | 60 to 80% | 60 to 80% | 60 to 80% | ≥ 80% |
| C[C@]1(CBr)CC[C@@H](Cc2ccccc2)[C@]1(O)Cn1cncn1 (racemic) [Compound I-602, (1RS,2SR,5SR)-2-bromomethyl-5-benzyl-2-methyl-1-(1H-1,2,4-triazol-1-ylmethyl)cyclopentanol] | ≥ 90% | 40 to 60% | > 80% | 60 to 80% | > 80% | > 80% | > 80% | > 80% | > 80% | 60 to 80% | 60 to 80% | 60 to 80% | ≥ 80% |
